Like-named read-outs stand apart in the source and are kept apart here.
Columns and labels:
[1] = tested on: HCV subgenomic stable replicon GT1b Con1; format: cell-based, Hepatitis C virus; settings: 0% human plasma, read-out: Mean EC50 ± SD
Source text: (§1) Five of these nine cell lines have been described previously, including those transfected with genotypes 1a H77, 1b Con1, 3a, 4a, and 6a ([28]). […] The genotype 2b and 6e NS3 sequences were each synthetically constructed based on a consensus sequence derived from the alignment of 15 genotype 2b and 4 genotype 6e sequences, respectively. All replicon constructs were bicistronic subgenomic replicons similar to those described by Bartenschlager and coworkers, and the replicon cell lines were generated by introducing these constructs into cells of an Huh-7 human hepatoma-derived cell line ([50]). The inhibitory effect of the PIs on HCV replication in replicon cells was determined in Dulbecco's modified Eagle medium containing 5% fetal bovine serum with or without 40% human plasma (Bioreclamation, Westbury, NY). The EC50s were determined using nonlinear regression curve fitting as described previously ([33]).

[2] = tested on: HCV subgenomic stable replicon GT2a JFH-1; format: cell-based, Hepatitis C virus; settings: GT2a JFH-1 stable replicon, 0% human plasma; read-out: Mean EC50 ± SD
Source text: as §1

[3] = tested on: HCV subgenomic stable replicon GT1a H77; format: cell-based, Hepatitis C virus; settings: 0% human plasma, read-out: Mean EC50 ± SD
Source text: as §1

[4] = tested on: HCV replicons with genotype 3a patient proteases; test: Transient replicon assay with proteases from HCV-infected patients; format: cell-based; settings: Hepatitis C virus, subtype 3a, no polymorphism, 2 samples
Source text: (§2) […]. Each of the NS3 gene sequences from genotypes 1, 2, and 4, with the exception of two genotype 2b sequences, was derived from serum or plasma from an HCV-infected patient by bulk PCR amplification, producing a population of sequences representing the viral quasispecies. Two genotype 2b sequences were synthesized based on the consensus sequences of the respective samples. One genotype 3a sequence was synthesized based on a consensus sequence from the sequences available in the Los Alamos HCV sequence database, and another genotype 3a sequence was a clonal sequence derived from a patient sample. The genotype 5a sequence (strain SA13) was synthesized based on the published sequence of the HCV isolate ([48]).
(§3) Transient replicons containing NS3 from clinical samples from HCV genotype 1a- and 1b-infected patients were described previously ([28]). For the transient replicons containing NS3/4A from samples from genotype 3a-infected patients, the first 251 amino acids of NS3 and the region encoding NS4A amino acids 21 to 32 (numbered relative to the NS4A coding region) from these HCV samples were cloned to replace the corresponding residues from the backbone of a genotype 1b Con1 shuttle vector. A genotype 1b Con1 transient replicon shuttle vector was also used to clone the region encoding the first 251 amino acids of NS3 from samples from genotype 4a- or 4d-infected patients in place of the corresponding region from HCV genotype 1b Con1.
(§4) For the analysis of NS3 sequences from patients, we defined a polymorphism to be an amino acid difference in the sequence of a baseline sample relative to the sequence of the appropriate HCV subtype reference sequence: genotype 1a H77 (GenBank accession number NC_004102), genotype 1b Con1 (GenBank accession number AJ238799), genotype 2a JFH-1 (GenBank accession number AB047639), genotype 2b HC-J8 (GenBank accession number D10988), genotype 3a S52 (GenBank accession number GU814263), genotype 4a ED43 (GenBank accession number GU814265), genotype 4d QC382 (GenBank accession number FJ462437), and genotype 5a SA13 (GenBank accession number AF064490). Polymorphisms were assessed at the following NS3 amino acid positions that are associated with resistance to the HCV PI class: 36, 43, 54, 55, 56, 80, 122, 155, 156, and 168. All DNA sequencing was performed by the Sanger sequencing method.

[5] = tested on: HCV replicons with genotype 1a patient proteases; test: as above; format: cell-based; settings: Hepatitis C virus
Source text: as §2, §3, §4

[6] = tested on: HCV replicons with genotype 1b patient proteases; test: as above; format: cell-based; settings: Hepatitis C virus, subtype 1b, no polymorphism, 9 samples
Source text: as §2, §3, §4

[7] = tested on: HCV replicons with genotype 4d patient proteases; test: as above; format: cell-based; settings: Hepatitis C virus, 96 h, subtype 4d, no polymorphism, 3 samples
Source text: as §2, §3, §4

[8] = tested on: HCV replicons containing proteases from 40 samples, genotypes 1 to 5; test: Transient replicon assay with patient proteases, all 40 samples; format: cell-based; settings: Hepatitis C virus, 40 clinical samples
Source text: as §2
as §3, with “A genotype 1b Con1 transient replicon shuttle vector was also used to clone the region encoding the first 251 amino acids of NS3 from samples from genotype 4a- or 4d-infected patients in place of the corresponding region from HCV genotype 1b Con1.” left out

Compound | EC50 [1] | EC50 [2] | EC50 [3] | EC50 ([4]; read-out: EC50 Median) | EC50 ([4]; read-out: EC50 Range) | EC50 ([5]; all genotype 1a clinical samples, read-out: Median EC50) | EC50 ([5]; subtype 1a, Q80K, 5 samples, read-out: EC50 Median) | EC50 ([5]; subtype 1a, Q80K, 5 samples, read-out: EC50 Range) | EC50 ([5]; subtype 1a, Q80N, 1 sample, read-out: EC50 Median) | EC50 ([5]; subtype 1a, no NS3 polymorphism, 5 samples, read-out: EC50 Median) | EC50 ([5]; subtype 1a, no NS3 polymorphism, 5 samples, read-out: EC50 Range) | EC50 ([6]; read-out: EC50 Median) | EC50 ([6]; read-out: EC50 Range) | EC50 ([7]; read-out: EC50 Median) | EC50 ([7]; read-out: EC50 Range) | EC50 ([8]; read-out: EC50 range, overall) | EC50 ([8]; read-out: Overall median EC50)
C=C[C@@H]1C[C@]1(NC(=O)[C@@H]1C[C@@H]2CN1C(=O)[C@H](C(C)(C)C)NC(=O)O[C@@H]1C[C@H]1CCCCCc1nc3ccc(OC)cc3nc1O2)C(=O)NS(=O)(=O)C1CC1 [Grazoprevir] | 1 ± 0.17 nM | 8.6 ± 3 nM | 0.37 ± 0.05 nM |  |  |  |  |  |  |  |  |  |  |  |  |  | 
CC(C)(C)[C@@H]1NC(=O)O[C@@H]2CCC[C@H]2OC/C=C/C(F)(F)c2nc3ccccc3nc2O[C@@H]2C[C@@H](C(=O)N[C@]3(C(=O)NS(=O)(=O)C4(C)CC4)C[C@H]3C(F)F)N(C2)C1=O [Glecaprevir, (3aR,7S,10S,12R,21E,24aR)-7-tert-butyl-N-[(1R,2R)-2-(difluoromethyl)-1-{[(1-methylcyclopropyl)sulfonyl]carbamoyl}cyclopropyl]-20,20-difluoro-5,8-dioxo-2,3,3a,5,6,7,8,11,12,20,23,24a-dodecahydro-1H,10H-9,12-methanocyclopenta[18,19][1,10,17,3,6]trioxadiazacyclononadecino[11,12-b]quinoxaline-10-carboxamide] |  |  |  | 2.3 nM | 0.71 to 3.8 nM | 0.08 nM | 0.09 nM | 0.07 to 0.1 nM | 0.09 nM | 0.06 nM | 0.05 to 0.12 nM | 0.29 nM | 0.2 to 0.68 nM | 0.17 nM | 0.13 to 0.25 nM | 0.05 to 3.8 nM | 0.3 nM
